This note sets out measurements from patent US9873670B2, “Arylquinoline and analog compounds and use thereof to treat cancer” (UNIVERSITY OF KENTUCKY RESEARCH FOUNDATION, priority 2013, dated 2018).

For series [1], the system named is normal/immortalized human cells. In words: Par-4 secretion from normal/immortalized human cells. It is filed as cell-based. Here is the method:
In another aspect, the subject technology provides assays for screening test compounds that interfere with vimentin binding to PAR-4 or which cause release of vimentin-bound PAR-4. In a typical assay, cells, such as HEL cells, are seeded onto an appropriate support, such as 60-mm plates containing supplemented growth medium (e.g., supplemented with 0.1% serum) at a desired confluency, such as 40-70% confluency, and treated with the test compound (e.g., 500 nM) or control vehicle. The cells are allowed to grow for a period of time, such as 24 hours, after which the conditioned medium (CM) is concentrated (e.g., concentrated 30× to 100 μl using Millipore tubes (Amicon Ultra centrifugal filters, Ultracel-10K) by 15 min centrifugation at 4500 rpm). The concentrated CM is then subjected to co-immunoprecipitation using detectably labeled PAR-4 and vimentin antibodies in the presence of various concentrations of purified PAR-4 and the precipitated proteins are resolved by SDS-PAGE and analyzed by Western blot analysis. The amount of immunoprecipitated PAR-4-vimentin complex is compared to that of control samples. For example, chemiluminescent signals may be quantified in the BIO-RAD Molecular Imager ChemiDoc XRS+Imaging system using Quantity One software. […]

Series [2] has as its system prostate cancer cells. In words: Par-4 secretion from prostate cancer cells. It is filed as cell-based. To be noted: relative to vehicle control.
Series [3] deals with vimentin. As to the kind of experiment: Pull-down with biotinylated arylquin to identify target protein. It is filed as binding, mouse (MEFs), human (HEL). To be noted: lysates of MEFs and HEL cells, biotinylated analog. The method, then:
Pull down experiments: To identify the target protein for compound Arylquin 1, pull-down experiments were performed as described previously. See Bargagna-Mohan, P., et al. J Biol Chem 285, 7657-7669 (2010). MEFs or HEL cells (grown to confluence in 15 cm plates) were lysed in […] lysis buffer (40 mM Hepes, pH 7.8; 140 mM NaCl; 10 mM NaF; 10% Glycerol, 1 mM EDTA; 1% Triton 100), and the lysates were pre-cleared at 4° C. for 1 h with 100 μL streptavidin beads (Novagen, Strep-Tactin Superflow Agarose). Binding reactions were performed by incubating the pre-cleared cell lysates with 50 μL beads±25 μg of biotinylated Arylquin 1 at 4° C. for 2 h. The beads were then washed four times with buffer (40 mM Hepes, pH 7.8; 140 mM NaCl; 10 mM NaF; 10% Glycerol, 1 mM EDTA), and bound protein was eluted with 50 μL of 2.5 mM Biotin/PBS. Eluted proteins were resolved by SDS-PAGE and Coomassie blue staining.

Series [4] addresses T1, binding of Par-4 to vimentin (Homo sapiens, UniProt P08670).
T1 construct: the Par-4 antibody co-immunoprecipitated endogenous vimentin; endogenous in cells
In words: Co-immunoprecipitation and immunocytochemistry of Par-4 and vimentin. It is filed as cell-based. The conditions noted are these: cells treated with compound. Here is the method:
Co-Immunoprecipitation and Western blot analysis: Protein extracted from cell lysates was filtered, pre-cleared with 25 μL (bed volume) of protein G-Sepharose beads and immunoprecipitated with 1 μg of respective antibodies. The eluted proteins were resolved by SDS-PAGE, and subjected to Western blot analysis as described.

The test system of series [5] is normal cells (MEFs, HELs, HBEC, PrE, PrS). In words: Apoptosis by ICC for active caspase-3, normal cells. It is filed as cell-based, human, mouse. Here is the method:
Normal cells (MEFs, HELs, HBEC, PrE, prostate stromal cells PrS) or lung cancer cells (human A549 and H460, mouse LLC1 and KP7B) and prostate cancer cells (PC-3 MM2, DU145, LNCaP) were treated with the indicated amounts (0.5, 1 and 10 μM) of Arylquin 1 or vehicle (V) for 24 h, and apoptosis was determined by ICC for active caspase-3. Data shown represent mean values from three independent experiments±s.d. Asterisks (**) or (*) indicate statistical significance (P<0.0001) or (P<0.001), respectively, by the Student t test.
(§1) See Hebbar, N., Wang, C. & Rangnekar, V. M. J Cell Phys 227, 3715-3721 (2012) and Shrestha-Bhattarai, T., Hebbar, N. & Rangnekar, V. M. Cancer Cell 24, 3-5 (2013). A total of three independent experiments were performed; and approximately 500 cells were scored in each experiment for apoptosis under a fluorescent microscope. Cell surface GRP78 expression on the cancer cell surface was quantified by FACS analysis in the Flow Cytometry Shared Resource Facility, Markey Cancer Center as previously described. See Hebbar, N., Wang, C. & Rangnekar, V. M. J Cell Phys 227, 3715-3721 (2012).

Series [6] concerns PC-3MM2. As to the kind of experiment: Apoptosis, PC-3MM2 cells. It is filed as cell-based, human. The conditions noted are these: 500 nM. The method, then: as §1
Series [7] deals with DU145 cells. In words: Apoptosis, DU145 cells. It is filed as cell-based, human. To be noted: 500 nM. The method, then: as §1
The test system of series [8] is cancer cells co-cultured with Par-4-/- MEFs. In words: Apoptosis in co-cultures of Par-4-/- MEFs and cancer cells. The conditions noted are these: 500 nM. It is filed as cell-based. Here is the method: (§2) Top: Cancer cells were co-cultured with MEFs and treated with Arylquin 1 (500 nM) or vehicle and tested for apoptosis. Bottom: Serum from mice injected with Arylquin 1 (Aq) or corn oil vehicle (V), was examined by Western blot analysis (not shown). Aliquots of serum from these mice were either directly added to the growth medium of cells in culture, or incubated with the indicated antibody, and then added to the growth medium of PC-3 MM2 cells to test for apoptosis.
as §1

For series [9], the system named is vimentin-deficient cells. In words: Par-4 secretion from vimentin-deficient cells. It is filed as cell-based.
Series [10] concerns cancer cell cultures (PC-3 MM2 cells). As to the kind of experiment: Ex vivo apoptosis of cancer cell cultures by serum from treated mice. It is filed as in vivo, C57BL/6 mice (serum). The method, then: as §2
Animal experiments: C57BL/6 mice were injected via the intraperitoneal route with Arylquin 1 (10 mg/kg body weight) or corn oil vehicle, and whole-blood samples were collected 24 h later. Serum was separated from the blood samples, heated at 56° C. to inactivate complement. Aliquots of the mouse serum samples were added to the growth medium (final 20% mouse serum) of normal and cancer cells in culture and tested for induction of ex vivo apoptosis in cancer cells. All animal procedures were performed with University of Kentucky IACUC approval.

Structures are written as SMILES.

T1 sequence (P08670 2-466 limits assumed): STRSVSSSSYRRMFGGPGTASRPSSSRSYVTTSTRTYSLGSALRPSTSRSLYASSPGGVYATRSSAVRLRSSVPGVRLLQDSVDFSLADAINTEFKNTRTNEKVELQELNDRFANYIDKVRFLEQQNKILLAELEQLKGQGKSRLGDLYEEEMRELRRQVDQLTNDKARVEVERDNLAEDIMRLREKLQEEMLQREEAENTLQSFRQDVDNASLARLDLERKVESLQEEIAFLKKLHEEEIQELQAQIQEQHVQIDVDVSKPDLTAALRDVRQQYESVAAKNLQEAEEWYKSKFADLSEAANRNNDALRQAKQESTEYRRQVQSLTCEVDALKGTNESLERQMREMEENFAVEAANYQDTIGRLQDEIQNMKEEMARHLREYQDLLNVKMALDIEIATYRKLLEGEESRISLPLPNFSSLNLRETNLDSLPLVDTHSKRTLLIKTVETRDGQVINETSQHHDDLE

With `CN(C)c1ccc2cc(-c3ccccc3F)c(N)nc2c1` [Arylquin 1, 3-(2-fluorophenyl)-N^7,N^7-dimethylquinoline-2,7-diamine], in series [1] (nanomolar concentrations), the “secretion of Par-4 from normal fibroblasts and epithelial cells” value is listed as “dose-dependent secretion of Par-4 at nanomolar concentrations”. Besides, the Par-4 secretion result is reported as “induced robust secretion of Par-4” in series [1] (normal/immortalized human cells), “showed induction of Par-4 secretion” in [2] and “did not further induce Par-4 secretion” in [9]. Further, in [3], the “target protein identified by pull-down” value is on record as “Vimentin was the primary target”. In addition, in series [4], the “Par-4 co-immunoprecipitation and co-localization with vimentin” value is on record as “neither Par-4 co-immunoprecipitation nor co-localization with vimentin”. Besides, in series [4], the vimentin expression entry was “not associated with inhibition of vimentin expression”. In addition, in series [5] (500 nM), the direct apoptosis result was “did not directly induce apoptosis”. For the same compound, the apoptosis result is reported as “not in normal cells” in series [5] (0.5, 1 and 10 μM, 24 h); “induced apoptosis” in [6]; “not in LNCaP or DU145 cells” in [7]. The “apoptosis of cancer cells in co-culture” value in series [8] is listed as “did not induce apoptosis”. For the same compound, the “pro-apoptotic activity in serum after Par-4 antibody” value in series [10] (serum incubated with Par-4 antibody) is on record as “neutralized by the Par-4 antibody”. The “ex vivo apoptosis of cancer cell cultures by serum” value in [10] (serum of treated vs vehicle-treated mice, final 20% mouse serum) is “significantly higher (P<0.001) ex vivo apoptosis”.
